Measurements from the kinase profiling compilation of Christmann-Franck et al. (2016).

Columns and labels:
Test in all cases: KINOMEscan competition binding
Details in all cases: compound 10.0 µM
MAP3K7 (human) = MAP3K7 (human) (UniProt O43318)
MAP3K2 (human) = MAP3K2 (human) (UniProt Q9Y2U5)
PKN3 (M.tuberculosis) = PKN3 (M.tuberculosis) (UniProt Q6P5Z2)
LATS1 (human) = LATS1 (human) (UniProt O95835)
[1] = tested on: PIK3CA (human), P42336 [E542K]
CAMKK1 (human) = CAMKK1 (human) (UniProt Q8N5S9)
PRKAA2 (human) = PRKAA2 (human) (UniProt P54646)
STK35 (human) = STK35 (human) (UniProt Q8TDR2)
AURKC (human) = AURKC (human) (UniProt Q9UQB9)
AURKC (human), sequence (Q9UQB9 whole entry, looked up): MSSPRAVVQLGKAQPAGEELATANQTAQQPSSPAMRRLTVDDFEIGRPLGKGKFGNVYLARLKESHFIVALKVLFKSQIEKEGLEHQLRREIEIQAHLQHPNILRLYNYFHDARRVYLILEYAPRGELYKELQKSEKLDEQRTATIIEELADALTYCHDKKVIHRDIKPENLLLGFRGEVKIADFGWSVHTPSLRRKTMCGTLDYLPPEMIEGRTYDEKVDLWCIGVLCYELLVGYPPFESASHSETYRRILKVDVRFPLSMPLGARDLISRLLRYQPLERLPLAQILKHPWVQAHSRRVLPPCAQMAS

GSK3B (human) = GSK3B (human) (UniProt P49841)
MYLK3 (human) = MYLK3 (human) (UniProt Q32MK0)
BMPR1A (human) = BMPR1A (human) (UniProt P36894)
TNK2 (human) = TNK2 (human) (UniProt Q07912)
MAP2K5 (human) = MAP2K5 (human) (UniProt Q13163)
MAP2K5 (human), sequence (Q13163 whole entry, looked up): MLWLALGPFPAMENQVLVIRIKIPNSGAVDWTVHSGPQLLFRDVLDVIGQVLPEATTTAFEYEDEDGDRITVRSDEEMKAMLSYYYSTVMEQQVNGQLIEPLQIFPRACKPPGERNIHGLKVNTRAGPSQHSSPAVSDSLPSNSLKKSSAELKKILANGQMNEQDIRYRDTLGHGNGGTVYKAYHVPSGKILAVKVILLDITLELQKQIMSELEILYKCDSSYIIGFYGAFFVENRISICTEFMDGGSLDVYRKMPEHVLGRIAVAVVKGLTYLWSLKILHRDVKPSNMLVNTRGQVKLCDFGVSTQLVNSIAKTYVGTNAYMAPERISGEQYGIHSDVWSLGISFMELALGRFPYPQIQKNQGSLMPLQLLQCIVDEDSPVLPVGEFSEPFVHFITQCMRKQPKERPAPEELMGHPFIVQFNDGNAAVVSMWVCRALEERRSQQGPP

NUAK1 (human) = NUAK1 (human) (UniProt O60285)
MAST1 (human) = MAST1 (human) (UniProt Q9Y2H9)
MAP2K7 (human) = MAP2K7 (human) (UniProt O14733)
MAP2K7 (human), sequence (O14733 whole entry, looked up): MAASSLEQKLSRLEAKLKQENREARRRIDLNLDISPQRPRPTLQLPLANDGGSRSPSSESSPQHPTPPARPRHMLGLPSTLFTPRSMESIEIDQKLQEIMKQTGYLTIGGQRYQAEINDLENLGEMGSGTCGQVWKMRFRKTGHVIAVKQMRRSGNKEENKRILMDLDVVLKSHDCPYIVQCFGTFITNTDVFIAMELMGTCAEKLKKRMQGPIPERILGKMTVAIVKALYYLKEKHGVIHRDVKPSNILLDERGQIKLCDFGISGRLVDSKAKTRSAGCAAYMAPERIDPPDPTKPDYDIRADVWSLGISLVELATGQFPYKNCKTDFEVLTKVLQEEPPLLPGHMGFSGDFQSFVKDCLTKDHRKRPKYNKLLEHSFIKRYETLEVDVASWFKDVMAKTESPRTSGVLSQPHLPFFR

TAOK2 (human) = TAOK2 (human) (UniProt Q9UL54)
CDK15 (human) = CDK15 (human) (UniProt Q96Q40)
ROS1 (human) = ROS1 (human) (UniProt P08922)
CSNK1G1 (human) = CSNK1G1 (human) (UniProt Q9HCP0)
DCLK2 (human) = DCLK2 (human) (UniProt Q8N568)
STK38 (human) = STK38 (human) (UniProt Q15208)
STK38 (human), sequence (Q15208 whole entry, looked up): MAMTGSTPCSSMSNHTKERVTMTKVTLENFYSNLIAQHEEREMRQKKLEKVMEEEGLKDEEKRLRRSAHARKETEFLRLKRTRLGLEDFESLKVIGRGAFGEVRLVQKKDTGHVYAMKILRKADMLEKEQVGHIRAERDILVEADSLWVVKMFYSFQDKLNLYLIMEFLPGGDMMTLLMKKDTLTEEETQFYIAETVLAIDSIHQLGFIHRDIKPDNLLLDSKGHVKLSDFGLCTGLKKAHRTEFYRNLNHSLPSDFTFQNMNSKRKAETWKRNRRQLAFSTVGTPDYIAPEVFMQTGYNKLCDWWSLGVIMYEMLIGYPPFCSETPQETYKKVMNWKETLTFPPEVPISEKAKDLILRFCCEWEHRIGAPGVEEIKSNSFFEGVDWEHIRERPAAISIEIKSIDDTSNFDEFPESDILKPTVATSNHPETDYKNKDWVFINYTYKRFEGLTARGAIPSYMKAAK

BLK (human) = BLK (human) (UniProt P51451)
MAP3K12 (human) = MAP3K12 (human) (UniProt Q12852)
TSSK1B (human) = TSSK1B (human) (UniProt Q9BXA7)
IRAK1 (human) = IRAK1 (human) (UniProt P51617)
LIMK2 (human) = LIMK2 (human) (UniProt P53671)
LIMK2 (human), sequence (P53671 whole entry, looked up): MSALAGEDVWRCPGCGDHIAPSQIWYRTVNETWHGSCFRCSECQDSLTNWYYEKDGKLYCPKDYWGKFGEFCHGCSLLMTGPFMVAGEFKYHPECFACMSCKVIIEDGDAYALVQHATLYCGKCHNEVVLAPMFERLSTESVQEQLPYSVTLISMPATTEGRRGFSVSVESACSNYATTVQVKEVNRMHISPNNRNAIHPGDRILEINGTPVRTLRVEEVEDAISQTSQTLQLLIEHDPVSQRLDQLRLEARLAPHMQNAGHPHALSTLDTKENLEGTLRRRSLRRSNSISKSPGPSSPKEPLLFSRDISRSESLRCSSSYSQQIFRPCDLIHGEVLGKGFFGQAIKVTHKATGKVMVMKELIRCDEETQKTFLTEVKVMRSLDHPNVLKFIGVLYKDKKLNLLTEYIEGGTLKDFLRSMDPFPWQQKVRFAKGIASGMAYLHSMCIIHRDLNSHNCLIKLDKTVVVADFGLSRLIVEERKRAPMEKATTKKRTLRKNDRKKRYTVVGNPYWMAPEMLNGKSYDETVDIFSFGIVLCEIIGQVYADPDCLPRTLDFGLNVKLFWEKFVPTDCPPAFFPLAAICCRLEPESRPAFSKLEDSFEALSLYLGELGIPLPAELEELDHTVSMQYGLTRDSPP

PRKG1 (human) = PRKG1 (human) (UniProt Q13976)
TBK1 (human) = TBK1 (human) (UniProt Q9UHD2)
TBK1 (human), sequence (Q9UHD2 whole entry, looked up): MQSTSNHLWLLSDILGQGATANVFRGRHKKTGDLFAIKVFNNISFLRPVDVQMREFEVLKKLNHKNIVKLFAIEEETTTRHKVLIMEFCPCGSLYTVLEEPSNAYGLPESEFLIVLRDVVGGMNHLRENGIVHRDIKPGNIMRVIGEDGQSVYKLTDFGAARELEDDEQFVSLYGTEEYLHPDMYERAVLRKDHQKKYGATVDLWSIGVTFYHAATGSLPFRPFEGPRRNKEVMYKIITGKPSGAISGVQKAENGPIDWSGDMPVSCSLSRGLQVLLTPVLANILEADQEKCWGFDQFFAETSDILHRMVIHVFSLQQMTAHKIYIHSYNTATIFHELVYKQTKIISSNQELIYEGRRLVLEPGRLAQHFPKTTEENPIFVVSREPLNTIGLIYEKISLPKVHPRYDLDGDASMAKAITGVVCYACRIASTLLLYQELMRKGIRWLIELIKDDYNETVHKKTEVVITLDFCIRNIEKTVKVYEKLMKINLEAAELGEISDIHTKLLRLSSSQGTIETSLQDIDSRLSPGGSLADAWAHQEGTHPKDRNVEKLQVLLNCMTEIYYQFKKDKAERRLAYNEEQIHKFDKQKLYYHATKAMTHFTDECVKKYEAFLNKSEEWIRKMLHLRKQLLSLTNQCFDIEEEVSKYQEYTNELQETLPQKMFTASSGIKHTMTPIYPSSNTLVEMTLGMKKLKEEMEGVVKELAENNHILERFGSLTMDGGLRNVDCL

INSR (human) = INSR (human) (UniProt P06213)
ULK3 (human) = ULK3 (human) (UniProt Q6PHR2)
ULK3 (human), sequence (Q6PHR2 whole entry, looked up): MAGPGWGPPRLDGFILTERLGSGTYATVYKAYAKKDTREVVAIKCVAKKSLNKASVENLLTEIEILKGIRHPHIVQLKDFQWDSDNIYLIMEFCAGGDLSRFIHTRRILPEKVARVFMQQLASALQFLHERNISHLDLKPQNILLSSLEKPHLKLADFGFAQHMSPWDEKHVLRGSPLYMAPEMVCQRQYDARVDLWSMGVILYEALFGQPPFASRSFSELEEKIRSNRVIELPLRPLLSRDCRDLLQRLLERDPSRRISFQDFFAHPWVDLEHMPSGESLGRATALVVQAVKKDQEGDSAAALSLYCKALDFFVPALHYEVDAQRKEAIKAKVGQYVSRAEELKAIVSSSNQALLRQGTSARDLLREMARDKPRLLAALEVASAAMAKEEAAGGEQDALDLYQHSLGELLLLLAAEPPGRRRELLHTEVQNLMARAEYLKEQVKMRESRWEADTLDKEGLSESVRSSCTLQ

MAP4K2 (human) = MAP4K2 (human) (UniProt Q12851)
CDK7 (human) = CDK7 (human) (UniProt P50613)
CDK7 (human), sequence (P50613 whole entry, looked up): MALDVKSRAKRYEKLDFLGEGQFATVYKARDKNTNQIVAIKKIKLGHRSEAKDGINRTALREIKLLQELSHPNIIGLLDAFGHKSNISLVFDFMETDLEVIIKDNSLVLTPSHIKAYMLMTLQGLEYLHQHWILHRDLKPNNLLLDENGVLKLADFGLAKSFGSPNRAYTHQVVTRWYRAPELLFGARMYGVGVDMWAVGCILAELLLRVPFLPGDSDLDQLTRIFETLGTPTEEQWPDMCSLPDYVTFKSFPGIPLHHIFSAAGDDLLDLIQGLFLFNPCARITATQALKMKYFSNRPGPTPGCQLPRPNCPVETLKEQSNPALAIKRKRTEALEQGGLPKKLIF

CAMK2D (human) = CAMK2D (human) (UniProt Q13557)
CAMK2D (human), sequence (Q13557 whole entry, looked up): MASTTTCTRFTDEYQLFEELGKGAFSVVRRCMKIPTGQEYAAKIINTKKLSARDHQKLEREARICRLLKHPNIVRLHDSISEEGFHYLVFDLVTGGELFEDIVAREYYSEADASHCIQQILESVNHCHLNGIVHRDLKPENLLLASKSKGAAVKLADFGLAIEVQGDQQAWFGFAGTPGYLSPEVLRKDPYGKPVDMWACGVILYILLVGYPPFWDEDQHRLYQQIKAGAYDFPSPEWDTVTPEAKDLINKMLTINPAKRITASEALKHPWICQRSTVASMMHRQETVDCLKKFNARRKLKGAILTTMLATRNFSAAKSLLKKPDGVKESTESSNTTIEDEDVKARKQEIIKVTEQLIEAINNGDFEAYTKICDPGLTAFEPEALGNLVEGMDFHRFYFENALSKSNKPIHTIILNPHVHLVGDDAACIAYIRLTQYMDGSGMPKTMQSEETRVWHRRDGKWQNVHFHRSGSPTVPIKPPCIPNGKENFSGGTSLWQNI

MAP3K1 (human) = MAP3K1 (human) (UniProt Q13233)
RIOK3 (human) = RIOK3 (human) (UniProt O14730)
NIM1 (human) = NIM1 (human) (UniProt Q8IY84)
DYRK1A (human) = DYRK1A (human) (UniProt Q13627)
DAPK1 (human) = DAPK1 (human) (UniProt P53355)

MAP3K7 (human), sequence (O43318 whole entry, looked up): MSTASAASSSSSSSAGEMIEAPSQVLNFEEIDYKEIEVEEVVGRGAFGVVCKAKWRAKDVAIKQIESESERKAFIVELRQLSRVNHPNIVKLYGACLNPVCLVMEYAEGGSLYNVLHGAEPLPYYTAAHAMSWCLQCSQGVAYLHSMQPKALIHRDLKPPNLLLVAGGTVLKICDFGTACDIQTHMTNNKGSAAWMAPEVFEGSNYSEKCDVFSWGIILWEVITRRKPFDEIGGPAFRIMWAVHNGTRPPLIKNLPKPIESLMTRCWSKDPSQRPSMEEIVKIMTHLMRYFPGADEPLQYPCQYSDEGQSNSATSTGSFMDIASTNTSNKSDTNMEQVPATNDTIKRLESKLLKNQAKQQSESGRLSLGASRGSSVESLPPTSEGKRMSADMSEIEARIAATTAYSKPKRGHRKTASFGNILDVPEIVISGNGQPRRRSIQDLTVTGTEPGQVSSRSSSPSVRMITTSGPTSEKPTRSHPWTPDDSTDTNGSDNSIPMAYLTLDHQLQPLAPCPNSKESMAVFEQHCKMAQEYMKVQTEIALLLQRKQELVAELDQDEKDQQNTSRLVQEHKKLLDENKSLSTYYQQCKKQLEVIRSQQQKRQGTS

SMILES | kinase still bound, per cent of control (MAP3K7 (human)) | kinase still bound, per cent of control (MAP3K2 (human)) | kinase still bound, per cent of control (PKN3 (M.tuberculosis)) | kinase still bound, per cent of control (LATS1 (human)) | kinase still bound, per cent of control [1] | kinase still bound, per cent of control (CAMKK1 (human)) | kinase still bound, per cent of control (PRKAA2 (human)) | kinase still bound, per cent of control (STK35 (human)) | kinase still bound, per cent of control (AURKC (human)) | kinase still bound, per cent of control (GSK3B (human)) | kinase still bound, per cent of control (MYLK3 (human)) | kinase still bound, per cent of control (BMPR1A (human)) | kinase still bound, per cent of control (TNK2 (human)) | kinase still bound, per cent of control (MAP2K5 (human)) | kinase still bound, per cent of control (NUAK1 (human)) | kinase still bound, per cent of control (MAST1 (human)) | kinase still bound, per cent of control (MAP2K7 (human)) | kinase still bound, per cent of control (TAOK2 (human)) | kinase still bound, per cent of control (CDK15 (human)) | kinase still bound, per cent of control (ROS1 (human)) | other results
CCCS(=O)(=O)Nc1ccc(F)c(C(=O)c2c[nH]c3ncc(Cl)cc23)c1F | 51% | 62% | 46% | 86% | 100% | 75% | 46% | 100% | 100% | 100% | 41% | 13% | 8.2% | 0.15% | 100% | 100% | 83% | 43% | 100% | 34% | kinase still bound, per cent of control (CSNK1G1 (human)): 66%; kinase still bound, per cent of control (DCLK2 (human)): 61%; kinase still bound, per cent of control (STK38 (human)): 78%; kinase still bound, per cent of control (BLK (human)): 1.7%; kinase still bound, per cent of control (MAP3K12 (human)): 52%; kinase still bound, per cent of control (TSSK1B (human)): 83%; kinase still bound, per cent of control (IRAK1 (human)): 60%; kinase still bound, per cent of control (LIMK2 (human)): 24%; kinase still bound, per cent of control (PRKG1 (human)): 100%; kinase still bound, per cent of control (TBK1 (human)): 100%; kinase still bound, per cent of control (INSR (human)): 83%; kinase still bound, per cent of control (ULK3 (human)): 60%; kinase still bound, per cent of control (MAP4K2 (human)): 74%; kinase still bound, per cent of control (CDK7 (human)): 69%; kinase still bound, per cent of control (CAMK2D (human)): 99%; kinase still bound, per cent of control (MAP3K1 (human)): 73%; kinase still bound, per cent of control (RIOK3 (human)): 100%; kinase still bound, per cent of control (NIM1 (human)): 92%; kinase still bound, per cent of control (DYRK1A (human)): 76%; kinase still bound, per cent of control (DAPK1 (human)): 89%
O=c1[nH]c2ccccc2n1C1CCN(Cc2ccc(-c3nc4cc5[nH]cnc5cc4nc3-c3ccccc3)cc2)CC1 | 85% | 100% | 78% | 93% | 58% | 100% | 95% | 100% | 88% | 89% | 100% | 77% | 100% | 72% | 100% | 100% | 80% | 85% | 76% | 50% | kinase still bound, per cent of control (CSNK1G1 (human)): 100%; kinase still bound, per cent of control (DCLK2 (human)): 92%; kinase still bound, per cent of control (STK38 (human)): 62%; kinase still bound, per cent of control (BLK (human)): 76%; kinase still bound, per cent of control (MAP3K12 (human)): 100%; kinase still bound, per cent of control (TSSK1B (human)): 82%; kinase still bound, per cent of control (IRAK1 (human)): 76%; kinase still bound, per cent of control (LIMK2 (human)): 100%; kinase still bound, per cent of control (PRKG1 (human)): 88%; kinase still bound, per cent of control (TBK1 (human)): 70%; kinase still bound, per cent of control (INSR (human)): 64%; kinase still bound, per cent of control (ULK3 (human)): 80%; kinase still bound, per cent of control (MAP4K2 (human)): 71%; kinase still bound, per cent of control (CDK7 (human)): 82%; kinase still bound, per cent of control (CAMK2D (human)): 100%; kinase still bound, per cent of control (MAP3K1 (human)): 80%; kinase still bound, per cent of control (RIOK3 (human)): 64%; kinase still bound, per cent of control (NIM1 (human)): 71%; kinase still bound, per cent of control (DYRK1A (human)): 90%; kinase still bound, per cent of control (DAPK1 (human)): 100%
N#C/C(=C1/Nc2ccccc2S1)c1ccnc(NCCc2cccnc2)n1 | 22% | 100% | 4.6% | 100% | 100% | 83% | 100% | 85% | 67% | 0.15% | 100% | 98% | 91% | 0.8% | 100% | 100% | 100% | 45% | 86% | 100% | kinase still bound, per cent of control (CSNK1G1 (human)): 42%; kinase still bound, per cent of control (DCLK2 (human)): 100%; kinase still bound, per cent of control (STK38 (human)): 91%; kinase still bound, per cent of control (BLK (human)): 100%; kinase still bound, per cent of control (MAP3K12 (human)): 81%; kinase still bound, per cent of control (TSSK1B (human)): 100%; kinase still bound, per cent of control (IRAK1 (human)): 6.2%; kinase still bound, per cent of control (LIMK2 (human)): 96%; kinase still bound, per cent of control (PRKG1 (human)): 100%; kinase still bound, per cent of control (TBK1 (human)): 81%; kinase still bound, per cent of control (INSR (human)): 92%; kinase still bound, per cent of control (ULK3 (human)): 12%; kinase still bound, per cent of control (MAP4K2 (human)): 36%; kinase still bound, per cent of control (CDK7 (human)): 16%; kinase still bound, per cent of control (CAMK2D (human)): 64%; kinase still bound, per cent of control (MAP3K1 (human)): 65%; kinase still bound, per cent of control (RIOK3 (human)): 33%; kinase still bound, per cent of control (NIM1 (human)): 100%; kinase still bound, per cent of control (DYRK1A (human)): 0%; kinase still bound, per cent of control (DAPK1 (human)): 32%
